Measurements as given in patent publication US20230081426A1, “COMPOUNDS AND METHODS FOR KRAS MODULATION AND INDICATIONS THEREFOR” (Plexxikon Inc., priority 2020, published 2023).

Assays:
[1] = target: T1, G12D-mutant human KRAS (amino acid residues 1-188) (Homo sapiens, UniProt P01116, G12D); experiment: KRAS Binding Disruption Assay (AlphaScreen; biotinylated KRpep-2d analogue or RAF1-RBD), G12D; conditions: KRAS G12D; geometric mean; read-out: KRAS GMean IC50 (uM) MUTATION: G12D
T1 construct: G12D or G12C-mutant human KRAS (amino acid residues 1-188) with FLAG tag; made in house; host or cells: E. coli
Summary of the method: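 Mutant KRAS (5-20 nM) incubated 1 h at 25° C with test compound and 5-20 nM biotinylated KRpep-2d analogue or RAF1-RBD in 20 mM HEPES pH 7.5, 100 mM NaCl, 5 mM MgCl2, 0.01% Tween-20, 0.01% BSA.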

[2] = target: T2, G12V-mutant human KRAS (amino acid residues 1-188) (Homo sapiens, UniProt P01116, G12V); experiment: KRAS Binding Competition Assay (AlphaScreen; biotinylated KRpep-2d analogue), G12V; conditions: geometric mean, read-out: KRAS GMean IC50 (uM) MUTATION: G12V
T2 construct: G12V-mutant human KRAS (amino acid residues 1-188) with FLAG tag was purified from E. coli; made in house; host or cells: E. coli

For `COc1cccc(F)c1-c1c(Cl)cc2c(N3C[C@H]4CC[C@@H](C3)N4)nc(OC3CCN(C)CC3)nc2c1F` [P-0330, 4-((1R,5S)-3,8-diazabicyclo[3.2.1]octan-3-yl)-6-chloro-8-fluoro-7-(2-fluoro-6-methoxyphenyl)-2-((1-methylpiperidin-4-yl)oxy)quinazoline], the IC50 [1] was 0.0001 to 10 µM and the IC50 [2] was 10 to 100 µM.

In the case of `CN1CCc2cccc(Oc3nc(N4C[C@H]5CC[C@@H](C4)N5)c4cc(Cl)c(-c5c(O)cccc5F)c(F)c4n3)c2C1` [P-0331, 2-(4-((1R,5S)-3,8-diazabicyclo[3.2.1]octan-3-yl)-6-chloro-8-fluoro-2-((2-methyl-1,2,3,4-tetrahydroisoquinolin-8-yl)oxy)quinazolin-7-yl)-3-fluorophenol], the IC50 [1] is reported as 0.0001 to 10 µM and the IC50 [2] is reported as 10 to 100 µM.

For `CN1CCc2cccc(Oc3nc(N4C[C@H]5CC[C@@H](C4)N5)c4ccc(-c5c(O)cccc5F)c(F)c4n3)c2C1` [P-0332, 2-(4-((1R,5S)-3,8-diazabicyclo[3.2.1]octan-3-yl)-8-fluoro-2-((2-methyl-1,2,3,4-tetrahydroisoquinolin-8-yl)oxy)quinazolin-7-yl)-3-fluorophenol], the IC50 [1] was 10 to 100 µM and the IC50 [2] was 10 to 100 µM.

For `CN1CCc2c(cccc2Oc2nc(N3C[C@H]4CC[C@@H](C3)N4)c3cc(Cl)c(-c4c(O)cccc4F)c(F)c3n2)C1` [P-0333, 2-(4-((1R,5S)-3,8-diazabicyclo[3.2.1]octan-3-yl)-6-chloro-8-fluoro-2-((2-methyl-1,2,3,4-tetrahydroisoquinolin-5-yl)oxy)quinazolin-7-yl)-3-fluorophenol], the IC50 [1] was 0.0001 to 10 µM and the IC50 [2] was 10 to 100 µM.

Compound `CN1CCc2c(cccc2Oc2nc(N3C[C@H]4CC[C@@H](C3)N4)c3ccc(-c4c(O)cccc4F)c(F)c3n2)C1` [P-0334, 2-(4-((1R,5S)-3,8-diazabicyclo[3.2.1]octan-3-yl)-8-fluoro-2-((2-methyl-1,2,3,4-tetrahydroisoquinolin-5-yl)oxy)quinazolin-7-yl)-3-fluorophenol] has an IC50 [1] of 10 to 100 µM and an IC50 [2] of 10 to 100 µM.

`COc1cccc(F)c1-c1c(Cl)cc2c(N3C[C@H]4CC[C@@H](C3)N4)nc(Oc3cccc4c3CN(C)CC4)nc2c1F` [P-0335, 4-((1R,5S)-3,8-diazabicyclo[3.2.1]octan-3-yl)-6-chloro-8-fluoro-7-(2-fluoro-6-methoxyphenyl)-2-((2-methyl-1,2,3,4-tetrahydroisoquinolin-8-yl)oxy)quinazoline] showed an IC50 [1] of 10 to 100 µM and an IC50 [2] of 10 to 100 µM.

In the case of `CN1CCC[C@H]1COc1nc(N2[C@@H]3CC[C@H]2CNC3)c2ccc(-c3cc(O)cc4ccccc34)cc2n1` [P-0336, 4-(4-((1R,5S)-3,8-diazabicyclo[3.2.1]octan-8-yl)-2-(((S)-1-methylpyrrolidin-2-yl)methoxy)quinazolin-7-yl)naphthalen-2-ol], the IC50 [1] is reported as 0.0001 to 10 µM and the IC50 [2] is reported as 10 to 100 µM.

`CN1CCC[C@H]1COc1nc(N2C[C@H]3CC[C@@H](C2)N3)c2ccc(-c3cccc4ccccc34)cc2n1` [P-0337, 4-((1R,5S)-3,8-diazabicyclo[3.2.1]octan-3-yl)-2-(((S)-1-methylpyrrolidin-2-yl)methoxy)-7-(naphthalen-1-yl)quinazoline] gave an IC50 [1] of 0.0001 to 10 µM and an IC50 [2] of 100 to 1000 µM.

`CN1CCC[C@H]1COc1nc(N2C[C@H]3CC[C@@H](C2)N3)c2ccc(-c3c(O)ccc4ccccc34)cc2n1` [P-0338, 1-(4-((1R,5S)-3,8-diazabicyclo[3.2.1]octan-3-yl)-2-(((S)-1-methylpyrrolidin-2-yl)methoxy)quinazolin-7-yl)naphthalen-2-ol] gave an IC50 [1] of 0.0001 to 10 µM and an IC50 [2] of 10 to 100 µM.

`CN1CCC[C@H]1COc1nc(N2C[C@H]3CC[C@@H](C2)N3)c2ccc(-c3cc([N+](=O)[O-])cc4ccccc34)cc2n1` [P-0339, 4-((1R,5S)-3,8-diazabicyclo[3.2.1]octan-3-yl)-2-(((S)-1-methylpyrrolidin-2-yl)methoxy)-7-(3-nitronaphthalen-1-yl)quinazoline] gave an IC50 [1] of 10 to 100 µM and an IC50 [2] of 10 to 100 µM.

With `CN1CCC[C@H]1COc1nc(N2C[C@H]3CC[C@@H](C2)N3)c2ccc(-c3cc(N)cc4ccccc34)cc2n1` [P-0340, 4-(4-((1R,5S)-3,8-diazabicyclo[3.2.1]octan-3-yl)-2-(((S)-1-methylpyrrolidin-2-yl)methoxy)quinazolin-7-yl)naphthalen-2-amine] the IC50 [1] was 0.0001 to 10 µM and the IC50 [2] was 10 to 100 µM.

`Cc1c(N)cccc1-c1ccc2c(N3C[C@H]4CC[C@@H](C3)N4)nc(OC[C@@H]3CCCN3C)nc2c1` [P-0341, 3-(4-((1R,5S)-3,8-diazabicyclo[3.2.1]octan-3-yl)-2-(((S)-1-methylpyrrolidin-2-yl)methoxy)quinazolin-7-yl)-2-methylaniline] showed an IC50 [1] of 100 to 1000 µM and an IC50 [2] of 10 to 100 µM.

`CN1CCC[C@H]1COc1nc(N2C[C@H]3CC[C@@H](C2)N3)c2ccc(-c3c(O)cccc3Cl)cc2n1` [P-0342, 2-(4-((1R,5S)-3,8-diazabicyclo[3.2.1]octan-3-yl)-2-(((S)-1-methylpyrrolidin-2-yl)methoxy)quinazolin-7-yl)-3-chlorophenol] was tested, and the IC50 [1] was 0.0001 to 10 µM and the IC50 [2] was 10 to 100 µM.

Compound `Cc1cccc(N)c1-c1ccc2c(N3C[C@H]4CC[C@@H](C3)N4)nc(OC[C@@H]3CCCN3C)nc2c1` [P-0343, 2-(4-((1R,5S)-3,8-diazabicyclo[3.2.1]octan-3-yl)-2-(((S)-1-methylpyrrolidin-2-yl)methoxy)quinazolin-7-yl)-3-methylaniline] has an IC50 [1] of 10 to 100 µM and an IC50 [2] of 10 to 100 µM.

`CN1CCC[C@H]1COc1nc(N2C[C@H]3CC[C@@H](C2)N3)c2cc(F)c(N3CC(O)Cc4ccccc43)c(F)c2n1` (stereo partly drawn) [P-0344, 1-(4-((1R,5S)-3,8-diazabicyclo[3.2.1]octan-3-yl)-6,8-difluoro-2-(((S)-1-methylpyrrolidin-2-yl)methoxy)quinazolin-7-yl)-1,2,3,4-tetrahydroquinolin-3-ol] gave an IC50 [1] of 0.0001 to 10 µM and an IC50 [2] of 100 to 1000 µM.

Compound `CN1CCC[C@H]1COc1nc(N2[C@@H]3CC[C@H]2CN(CC(=O)C2CCNCC2)C3)c2ccc(-c3cc(O)cc4ccccc34)cc2n1` [P-0345, 2-((1R,5S)-8-(7-(3-hydroxynaphthalen-1-yl)-2-(((S)-1-methylpyrrolidin-2-yl)methoxy)quinazolin-4-yl)-3,8-diazabicyclo[3.2.1]octan-3-yl)-1-(piperidin-4-yl)ethan-1-one] has an IC50 [1] of 0.0001 to 10 µM and an IC50 [2] of 10 to 100 µM.

`CN1CCC[C@H]1COc1nc(N2[C@@H]3CC[C@H]2CN(CC(O)CN2CCOCC2)C3)c2ccc(-c3cc(O)cc4ccccc34)cc2n1` (stereo partly drawn) [P-0346, 4-(4-((1R,5S)-3-(2-hydroxy-3-morpholinopropyl)-3,8-diazabicyclo[3.2.1]octan-8-yl)-2-(((S)-1-methylpyrrolidin-2-yl)methoxy)quinazolin-7-yl)naphthalen-2-ol] showed an IC50 [1] of 0.0001 to 10 µM and an IC50 [2] of 10 to 100 µM.

For `CN1CCC[C@H]1COc1nc(N2[C@@H]3CC[C@H]2CN(C(=O)Nc2cnc[nH]2)C3)c2ccc(-c3cc(O)cc4ccccc34)cc2n1` [P-0347, (1R,5S)-8-(7-(3-hydroxynaphthalen-1-yl)-2-(((S)-1-methylpyrrolidin-2-yl)methoxy)quinazolin-4-yl)-N-(1H-imidazol-5-yl)-3,8-diazabicyclo[3.2.1]octane-3-carboxamide], the IC50 [1] was 0.0001 to 10 µM and the IC50 [2] was 0.0001 to 10 µM.

`CN1CCC[C@H]1COc1nc(N2[C@@H]3CC[C@H]2CN(CC2(O)CCNCC2)C3)c2ccc(-c3cc(O)cc4ccccc34)cc2n1` [P-0348, 4-(((1R,5S)-8-(7-(3-hydroxynaphthalen-1-yl)-2-(((S)-1-methylpyrrolidin-2-yl)methoxy)quinazolin-4-yl)-3,8-diazabicyclo[3.2.1]octan-3-yl)methyl)piperidin-4-ol] showed an IC50 [1] of 10 to 100 µM and an IC50 [2] of 10 to 100 µM.

`CN1CCC[C@H]1COc1nc(N2[C@@H]3CC[C@H]2CN(C(=N)NC#N)C3)c2ccc(-c3cc(O)cc4ccccc34)cc2n1` [P-0349, (1R,5S)-N-cyano-8-(7-(3-hydroxynaphthalen-1-yl)-2-(((S)-1-methylpyrrolidin-2-yl)methoxy)quinazolin-4-yl)-3,8-diazabicyclo[3.2.1]octane-3-carboximidamide] gave an IC50 [1] of 10 to 100 µM and an IC50 [2] of 0.0001 to 10 µM.

Work on `CN1CCC[C@H]1COc1nc(N2[C@@H]3CC[C@H]2CN(C(=O)c2c[nH]cn2)C3)c2ccc(-c3cc(O)cc4ccccc34)cc2n1` [P-0350, ((1R,5S)-8-(7-(3-hydroxynaphthalen-1-yl)-2-(((S)-1-methylpyrrolidin-2-yl)methoxy)quinazolin-4-yl)-3,8-diazabicyclo[3.2.1]octan-3-yl)(1H-imidazol-4-yl)methanone] yielded an IC50 [1] of 10 to 100 µM and an IC50 [2] of 0.0001 to 10 µM.

Work on `O=C(O)CC(=O)N1[C@@H]2CC[C@H]1CN(c1nc(OCC34CCCN3CCC4)nc3c(F)c(-c4cc(O)cc5ccccc45)ccc13)C2` [P-0353, 3-((1R,5S)-3-(8-fluoro-7-(3-hydroxynaphthalen-1-yl)-2-((tetrahydro-1H-pyrrolizin-7a(5H)-yl)methoxy)quinazolin-4-yl)-3,8-diazabicyclo[3.2.1]octan-8-yl)-3-oxopropanoic acid] yielded an IC50 [1] of 0.0001 to 10 µM and an IC50 [2] of 0.0001 to 10 µM.

For `CN(C)c1ccc(/C=C/c2nc(N3C[C@H]4CC[C@@H](C3)N4)c3cc(Cl)c(-c4c(O)cccc4F)c(F)c3n2)cc1` [P-0355, 2-(4-((1R,5S)-3,8-diazabicyclo[3.2.1]octan-3-yl)-6-chloro-2-((E)-4-(dimethylamino)styryl)-8-fluoroquinazolin-7-yl)-3-fluorophenol], the IC50 [1] was 0.0001 to 10 µM and the IC50 [2] was 0.0001 to 10 µM.

In the case of `CN1CCC[C@H]1COc1nc(N2CC3COCC(C2)N3)c2cc(Cl)c(-c3cc(O)cc4ccccc34)c(F)c2n1` [P-0357, 4-(4-(3-oxa-7,9-diazabicyclo[3.3.1]nonan-7-yl)-6-chloro-8-fluoro-2-(((S)-1-methylpyrrolidin-2-yl)methoxy)quinazolin-7-yl)naphthalen-2-ol], the IC50 [1] is reported as 0.0001 to 10 µM and the IC50 [2] is reported as 0.0001 to 10 µM.
